Assay results from ChEMBL document CHEMBL3390840, “Expanding the horizon of chemotherapeutic targets: From MDM2 to MDMX (MDM4)” (Medchemcomm, 2011).

Legend:
[1] = target: E3 ubiquitin-protein ligase Mdm2 (Homo sapiens, UniProt Q00987); test: Inhibition of human full length GST-tagged MDM2 expressed in Escherichia coli TG1 after 15 mins by ELISA
[2] = target: T1, Protein Mdm4 (Homo sapiens, UniProt O15151); test: Inhibition of human full length GST-tagged MDMX expressed in Escherichia coli TG1 after 15 mins by ELISA
T1 sequence (O15151 whole entry): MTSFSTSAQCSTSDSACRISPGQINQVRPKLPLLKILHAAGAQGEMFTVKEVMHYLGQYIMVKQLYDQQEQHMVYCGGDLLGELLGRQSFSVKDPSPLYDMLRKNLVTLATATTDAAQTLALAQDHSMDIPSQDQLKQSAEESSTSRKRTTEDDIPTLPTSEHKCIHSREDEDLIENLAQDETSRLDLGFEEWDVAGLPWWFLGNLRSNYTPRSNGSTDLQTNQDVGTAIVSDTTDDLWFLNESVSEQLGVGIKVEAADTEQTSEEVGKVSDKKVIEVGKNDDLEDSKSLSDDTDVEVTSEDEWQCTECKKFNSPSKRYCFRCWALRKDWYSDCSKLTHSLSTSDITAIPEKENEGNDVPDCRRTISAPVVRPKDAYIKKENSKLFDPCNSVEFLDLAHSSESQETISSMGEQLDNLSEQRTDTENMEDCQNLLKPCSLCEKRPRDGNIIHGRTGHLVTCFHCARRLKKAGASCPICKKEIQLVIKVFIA

[3] = target: MDMX (Homo sapiens, UniProt O15151); test: Inhibition of human recombinant MDMX (1 to 185) after 30 mins by fluorescence polarization assay

Sequence of E3 ubiquitin-protein ligase Mdm2 (Q00987 whole entry): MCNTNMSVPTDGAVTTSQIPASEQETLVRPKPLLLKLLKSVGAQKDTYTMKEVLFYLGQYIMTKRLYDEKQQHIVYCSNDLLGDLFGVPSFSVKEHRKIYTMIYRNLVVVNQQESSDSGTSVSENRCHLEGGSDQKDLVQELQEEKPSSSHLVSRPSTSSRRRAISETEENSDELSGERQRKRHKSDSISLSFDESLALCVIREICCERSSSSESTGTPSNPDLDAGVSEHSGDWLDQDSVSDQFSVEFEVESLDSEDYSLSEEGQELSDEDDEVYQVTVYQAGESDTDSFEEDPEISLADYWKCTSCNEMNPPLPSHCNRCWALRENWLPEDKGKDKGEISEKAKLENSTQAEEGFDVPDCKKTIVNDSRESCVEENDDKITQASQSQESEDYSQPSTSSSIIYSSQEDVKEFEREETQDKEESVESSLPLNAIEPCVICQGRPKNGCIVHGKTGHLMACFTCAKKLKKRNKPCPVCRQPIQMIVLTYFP

Q: How did the IC50 [1] turn out when H-MPRFMDYWEGLN-OH was run?
A: The IC50 was 150 nM.

Q: What about the IC50 [2] of the same compound?
A: The IC50 was 1650 nM.

Q: How did the EC50 [3] turn out when `CCOc1cc(/C=C2\C(=O)N(c3ccccc3)N=C2C)cc(Cl)c1OCC(=O)OC` was run?
A: The EC50 was 840 nM.
